Values after ≈ are worked out from the molar mass of the structure shown. Like-named read-outs stand apart in the source and are kept apart here. Where only a bound is given, the exact number is not on record here.

A word on the MIC: it is the least concentration at which growth counts as inhibited.

Data set [1] deals with onychomycosis; fungal infections of the skin and nails. The data set can be described thus: Azole antifungals tested on fungal infections of skin and nails. Also noted: species or system human. As to conditions: in vivo.
The format of data set [2] is in vivo, human. From the text: Compositions were topically applied to various skin and nail conditions. […] The solution was applied by dropper to affected areas, or combined with a bioactive agent and then applied to the affected area or applied sequentially to the affected area at least once daily, preferably twice daily during treatment period. […] Background: A subject was diagnosed with Dyshidrosis in March of 2012. Symptoms included small blisters on the palms of their hands and the underside of their fingers with scaling. […] They abandoned the treatment. Symptoms continued. They occasionally self-treated the condition with over the counter Lamisil. […] Treatment: […]

The nature of data set [3]: Topical treatment of psoriasis, divided elbow, one subject. The data set is classed as in vivo, human. The following applies: for Result after 3 days treated twice daily: elbow section. From the text: Background: A subject suffered from Psoriasis diagnosed […]. They have not undergone treatment for their condition since 1996. They report rash after bathing that turns to white plaques with scaling within days. Treatment 1: […] They then distributed the combination to the entire affected right lateral section of their elbow. Treatment 2: […] They then distributed the combination to the entire affected outside lateral section. Treatment 3: […] They then distributed the combination to the entire affected interior lateral section.

For another data set, the system named is human cells. As to conditions: Ingram et al 2004; cited from earlier work.
In data set [4] the test system is Trichophyton rubrum ATCC MYA 4438. The data set can be described thus: MIC study in broth culture, sodium chlorite and itraconazole. As to conditions: for MIC: Trichophyton rubrum, read-out: amount of Itraconazole required to inhibit the fungus (MIC). It counts as cell-based. The method, then: As shown in the examples, in vitro data was generated and the minimum inhibitory concentrations (MIC) tests were determined in broth culture using ATCC MYA 4438. Itraconazole is the azole used in the study. […] On the X-axis are dilutions of itraconazole. Fungal Growth is noted by a + and lack of growth by a −.
Referring to FIG. 18, the experiments were repeated with the strain Trichophyton rubrum.

For data set [5], the system named is Trichophyton mentagrophytes ATCC MYA 4439. The description is as above. The data set is classed as cell-based. The following applies: for MIC: Trichophyton mentagrophytes, read-out: amount of Itraconazole required to inhibit the fungus (MIC).
The nature of data set [6]: Topical treatment of psoriasis on chin and face. It counts as in vivo, human. As to conditions: three days twice daily.
Method: Patient was treated on the chin for three days twice daily. On their right side of the chin, sodium chlorite solution was applied alone.
They applied SC combined with CCT's herbal treatment to their right side of their chin. SC+ a composition containing 3.66 g thymol, 3.66 g menthol, 3.66 g menthyl acetate in 100 ml grapeseed oil with 0.25 ounce beeswax.
In a further data set the test system is Candida albicans. The following applies: at 0.5%.
For data set [7], the system named is dermataphytes that cause tinea pedis and onychomycosis.
The next data set is described as follows: Treatment of dog wound. As to conditions: rear leg. The data set is classed as in vivo. From the text: Dog was occasionally limping and favoring his rear leg. A 2-inch diameter area of raw red moist skin was observed where hair had fallen out. Upon close inspection a 1,½ inch suppurating cut was observed which created a dark line leading to a 1 cm×2 cm section of blackened skin. Dog had been topically treated with Triamcinolone Acetonide and bandaged previously to no effect.
The ratio was 1:1. At the second and third interval Neosporin™ was mixed in hand with other compositions in a 1:1:1 ratio. Dog was not observed to lick wound.

Method for Candidia albicans: An in vitro determination of the use of sodium chlorite on human tissue culture and broth culture of Candidia albicans was performed.

Turning to `CC(=O)N1CCN(c2ccc(OCC3COC(Cn4ccnc4)(c4ccc(Cl)cc4Cl)O3)cc2)CC1` (stereo not shown) [Ketaconazole], the “effectiveness against fungal infection of nails/skin” value in data set [1] is listed as “excellent results”.
In the case of `CN(C/C=C/C#CC(C)(C)C)Cc1cccc2ccccc12` [Lamisil], the “local tolerance of earlier treatment” value in data set [2] (human, in vivo) is “stinging”. Moreover, the “result of earlier treatment of the subject's Dyshidrosis” value in data set [2] (subject's history before the study) is “no significant amelioration of symptoms”.
As to `C=C1CCN([C@H](C)[C@](O)(Cn2cncn2)c2ccc(F)cc2F)CC1` [10% efinaconazole, efinaconazole], the “Result after 3 days treated twice daily” value in data set [3] is “Rash and white scaling”; in data set [3] (listed as efinaconazole), “white dry scales and evidence of rash”.
Regarding chlorite ions, the “concentration shown to be non-toxic to human cells” value in the data set on human cells was 100 ppm.
With sodium chlorite, the “drop of sodium chlorite's MIC” value in data set [4] (combined with itraconazole) is listed as “eight-fold”; in [5] (combined with itraconazole), “two-fold”. In addition, the “recurrence of psoriasis symptoms in treated area of chin, 92 days later” value in data set [6] was “no recurrence of psoriasis symptoms”. The Candidia albicans killing entry was “effective in killing” in the data set on Candidia albicans (0.5% sodium chlorite in culture broth); “Yes” in the data set with Candidia albicans (0.5% sodium chlorite in culture broth, listed as Sodium Chlorite); “effective in killing” in the data set on Candidia albicans (2.0% sodium chlorite in culture broth); “Yes” with Candidia albicans (2.0% sodium chlorite in culture broth, listed as Sodium Chlorite). For the same compound, the “toxicity against Candidas albicans” value with Candidia albicans (at 0.5%) amounted to 100%. Besides, the “regrowth of Candidia albicans” value in the data set on Candidia albicans (continued culture without sodium chlorite) is given as “did not result in regrowth”. The “side by side comparison with standard antifungal agent in vitro” value in the data set with Candidia albicans (versus fluconazole) is recorded as “significantly superior results compared to fluconazole”. Moreover, the “effect on Candida albicans on agar plates” value in the data set with Candida albicans is reported as “kills Candida albicans rather than simply inhibiting its growth”. In [7] (combined with antifungals in the azole group), the “effective concentration when combined with azole antifungals” value is reported as at least 0.015%. Moreover, the “effective concentrations alone against dermataphytes” value in [7] (sodium chlorite alone, broth culture and in vivo) is on record as 0.25-4%.
For `N#C/C(=C1/SC[C@@H](c2ccc(Cl)cc2Cl)S1)n1ccnc1` [1% Luliconazole cream, luliconazole], the “psoriasis symptoms one day later” value in [3] (Treatment 2, elbow section) is recorded as “White dry scales were perceived though the rash was less apparent”. Also, the “Result after 3 days treated twice daily” value in data set [3] is “Red Rash and scaling”; in [3] (listed as Luliconazole), “red rash and plaques were present”.
In the case of `CCC(C)n1ncn(-c2ccc(N3CCN(c4ccc(OCC5COC(Cn6cncn6)(c6ccc(Cl)cc6Cl)O5)cc4)CC3)cc2)c1=O` (stereo not shown) [Itraconazole, itraconazole], the MIC is below 0.03 µg/mL in data set [4] (combined with sodium chlorite), 0.06 µg/mL (≈ 0.085 µM) in data set [4] (itraconazole alone), below 0.03 µg/mL in data set [5] (combined with sodium chlorite) and 0.125 µg/mL (≈ 0.177 µM) in [5] (itraconazole alone). The results for the “decrease of itraconazole MIC” value in data set [4] (combined with sodium chlorite) and in data set [5] (combined with sodium chlorite) were “at least 2 fold” and “at least 4 fold”, respectively.
On to `CC1(C)O[C@@H]2C[C@H]3[C@@H]4CCC5=CC(=O)C=C[C@]5(C)[C@@]4(F)[C@@H](O)C[C@]3(C)[C@]2(C(=O)CO)O1` [Triamcinolone Acetonide], for which the wound outcome in “Treatment of dog wound” was “no effect”.
Take `Clc1ccccc1C(c1ccccc1)(c1ccccc1)n1ccnc1` [1% Clotrimazole cream, Clotrimazole]: in data set [3] (Treatment 3, elbow section), the “psoriasis symptoms two days later” value is “White dry scales were not perceived and the rash was less apparent”. Moreover, in data set [3], the “Result after 3 days treated twice daily” value was “plaques are not present”.
